The source of these data is PubChem BioAssay (NCI).

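Each compound was tested at five concentrations against cells in 96-well plates for 48 hours. GI50 = concentration required for 50% inhibition of growth. TGI is the concentration that stops growth completely.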

Experiment in all cases: NCI-60 cell line screen, 48 h
For experiment [1], the system named is A549 NSCLC.
Experiment [2] concerns HCC-2998 colon.
Experiment [3] relates to HCT-116 colon.
The subject of experiment [4] is HS 578T breast.
Experiment [5] has as its system MALME-3M melanoma.
The test system of experiment [6] is MDA-MB-231 breast.
The test system of experiment [7] is MDA-MB-435.
The subject of experiment [8] is OVCAR-3 ovarian.
The subject of experiment [9] is RPMI-8226 leukemia.
The subject of experiment [10] is SK-OV-3 ovarian.

As for `C=CC(=O)N1CCN(c2nc(=O)n(-c3c(C)ccnc3C(C)C)c3nc(-c4c(O)cccc4F)c(F)cc23)[C@@H](C)C1`, the GI50 was over 46.5 µM in [1]; 19.1 µM in experiment [2]; 15.1 µM in experiment [3]; 45.7 µM in experiment [4]; 20.8 µM in [5]; 25.4 µM in [6]. Moreover, the GI50 in experiment [7] was 25.1 µM; in [8], 30.1 µM; in experiment [9] it was 18.1 µM; in experiment [10], over 77.8 µM. In addition, the TGI in [1] was over 77.2 µM; in [2], 35.9 µM; in experiment [3] it was 36.3 µM; in experiment [4] it was over 100 µM; in experiment [5] it was 64 µM; in [6], 85.2 µM. Besides, the TGI is 70 µM in experiment [7], over 86 µM in [8], over 90.9 µM in experiment [9] and over 100 µM in experiment [10].
Regarding `COc1cc2cc(Oc3ccc(NC(=O)Nc4cccc(C(F)(F)F)c4)cc3)c(C)nc2cc1OC`, the GI50 was 1.47 µM in experiment [1]; 2.59 µM in experiment [2]; 1.46 µM in [3]; 1.44 µM in experiment [4]; 1.71 µM in experiment [5]; 1.13 µM in experiment [6]. Moreover, the GI50 is 1.63 µM in experiment [7], 2.04 µM in experiment [8], 1.05 µM in [9] and 2.06 µM in experiment [10]. In addition, the TGI came to 6.49 µM in experiment [1]; 50 µM in experiment [2]; 5.84 µM in experiment [3]; 4.22 µM in experiment [4]; 4.9 µM in experiment [5]; 4.15 µM in experiment [6]. In addition, the TGI in experiment [7] worked out at 10.1 µM; in [8], 8.07 µM; in experiment [9], 2.96 µM; in experiment [10], 10.6 µM.
In the case of `COC(=O)C1=C(C(=O)ON)C2C=CC1(C(Cc1ccccc1)Nc1ccccc1)O2` (stereo not given), the GI50 in experiment [1] was 15.2 µM; in experiment [2] it was 16.9 µM; in experiment [3] it was 1.77 µM; in [4] it was 25.3 µM; in experiment [5], 1.76 µM; in experiment [6] it was 1.87 µM. For the same molecule, the GI50 in experiment [7] was 1.92 µM; in [8], 1.72 µM; in [9], 2.33 µM; in experiment [10] it was 14.8 µM. In addition, the TGI in experiment [1] was 29.4 µM; in experiment [2] it was 32.3 µM; in [3], 3.24 µM; in experiment [4], over 100 µM; in experiment [5] it was 3.33 µM; in [6], 3.59 µM. In addition, the TGI in [7] stood at 3.86 µM; in [8] it was 3.11 µM; in experiment [9], 6.51 µM; in experiment [10], 28 µM.
Turning to `CC(C)[C@H](CO)Nc1nc(Nc2ccc(C(=O)NCCNS(=O)(=O)c3cccc4c(N(C)C)cccc34)c(Cl)c2)c2ncn(C(C)C)c2n1`, the GI50 in experiment [1] was 2.91 µM; in [2], 2.9 µM; in [3], 2.57 µM; in experiment [4], 2.08 µM; in experiment [5] it was over 25.5 µM; in experiment [6], 1.58 µM. Also, the GI50 is 2.43 µM in experiment [7], 2.65 µM in [8], 2.14 µM in experiment [9] and over 100 µM in experiment [10]. The TGI in [1] is over 77.7 µM; in [2], over 100 µM; in [3], over 100 µM; in experiment [4], over 100 µM; in experiment [5], over 100 µM; in experiment [6], 9.16 µM. In addition, the TGI was over 44.2 µM in experiment [7], over 66.9 µM in experiment [8], 5.63 µM in experiment [9] and over 100 µM in experiment [10].
As to `Nc1c(Br)cc(Br)c2c1[nH]c(=O)c1ccccc12`, the GI50 is 6.7 µM in [1]; over 100 µM in [2]; 3.98 µM in experiment [3]; 3.07 µM in experiment [4]; 3.43 µM in experiment [5]; 2.36 µM in experiment [6]. The GI50 in [7] was 19.5 µM; in experiment [8], 11.5 µM; in experiment [9] it was 9.89 µM; in experiment [10], 2.85 µM. Also, the TGI in [1] is over 100 µM; in experiment [2] it was over 100 µM; in [3], 20.2 µM; in experiment [4], 30 µM; in experiment [5] it was 10.1 µM; in experiment [6], 61.1 µM. Moreover, the TGI in experiment [7] was over 100 µM; in experiment [8] it was 43.4 µM; in [9], over 100 µM; in experiment [10], 7.81 µM.
For the molecule `Cc1cc2nc3c4cc(N)ccc4n(CCN(C)C)c3nc2cc1C`, the GI50 in experiment [1] was 0.45 µM; in [2] it was 0.876 µM; in experiment [3], 0.365 µM; in [4], 2.06 µM; in experiment [5] it was 1.27 µM; in [6], 1.12 µM. For the same molecule, the GI50 is 0.979 µM in [7], 1.39 µM in experiment [8], 0.606 µM in experiment [9] and 1.92 µM in experiment [10]. Moreover, the TGI in experiment [1] was 6.14 µM; in experiment [2], 3.85 µM; in [3], 10.9 µM; in experiment [4] it was 9.81 µM; in experiment [5], 3.08 µM; in [6] it was 7.61 µM. Besides, the TGI in [7] is 3.25 µM; in experiment [8], 6.87 µM; in [9] it was 4.86 µM; in [10], 16.4 µM.
